Two molecules from patent publication US9822074B2, “Dihydropyridinone MGAT2 inhibitors” (BRISTOL-MYERS SQUIBB COMPANY, priority 2013, dated 2017) can be followed below.

In the test the target is human MGAT2 (Homo sapiens (Human), UniProt Q3SYC2). Nature of the test: MGAT LCMS Assay (MGAT2 in vitro enzyme assay). Format: biochemical. As to conditions: Human MGAT-2 membranes expressed in Sf9 cells; 100 μM 2-oleoylglycerol, 15 μM oleoyl-Coenzyme A; read-out: h-MGAT LCMS IC50. As to the method:
The MGAT enzyme reactions were performed in Corning FALCON® 96-well Polypropylene plates, in a total volume of 60 μL of 50 mM Potassium Phosphate buffer pH 7.4, containing a final concentration of 100 μM 2-oleoylglycerol, 15 μM oleoyl-Coenzyme A and 0.0013 μg/μL Human or Mouse MGAT-2 or 0.0026 μg/μL Rat recombinant MGAT-2 membranes expressed in Sf9 cells. Assay plates were run through a fully automated robotics system and shaken for 5 seconds every minute for a total 10 minutes. The reactions were then quenched with 120 μL of ice cold methanol containing 1 μg/mL 1,2-distearoyl-rac-glycerol as the internal standard. Plates were shaken for 2 minutes and spun down to remove protein precipitation. After the spin, samples were transferred to LC/MS compatible PCR plates. For LC/MS analysis, a ThermoFisher Surveyor pump, utilizing a Waters Symmetry C8, 50×2.1 mm column, was used for the chromatography of enzyme products. The buffer system consists of 0.1% formic acid in water with a mobile phase consisting 0.1% formic acid in methanol. The shallow gradient is 90-100% mobile phase in 0.2 min with a total run time of 2.3 min. The first 0.5 minutes of each injection was diverted to waste to eliminate the presence of Phosphate buffer in the enzymatic reaction. The column was run at 0.6 mL/min and a temperature of 65° C. […]

Each structure is given as a SMILES string.

Sequence of human MGAT2 (Q3SYC2 whole entry): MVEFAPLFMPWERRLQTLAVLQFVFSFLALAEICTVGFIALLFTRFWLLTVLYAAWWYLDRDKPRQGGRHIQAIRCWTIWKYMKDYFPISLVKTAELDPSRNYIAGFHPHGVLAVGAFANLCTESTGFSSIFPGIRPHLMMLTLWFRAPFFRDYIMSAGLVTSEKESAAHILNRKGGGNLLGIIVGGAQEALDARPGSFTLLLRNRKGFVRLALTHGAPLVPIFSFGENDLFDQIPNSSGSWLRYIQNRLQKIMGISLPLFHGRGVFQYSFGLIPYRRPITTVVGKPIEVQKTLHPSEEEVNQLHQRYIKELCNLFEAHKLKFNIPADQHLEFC

For `CC(C)n1ccc(C2=C(C(=O)NS(=O)(=O)C3CC3)C(=O)N[C@@](c3ccc(CCCCC(F)(F)F)cc3F)(C(F)(F)F)C2)n1` [Example 49, (S)-N-(cyclopropylsulfonyl)-6-(2-fluoro-4-(5,5,5-trifluoropentyl)phenyl)-4-(1-isopropyl-1H-pyrazol-3-yl)-2-oxo-6-(trifluoromethyl)-1,2,5,6-tetrahydropyridine-3-carboxamide], the IC50 came out at 35 nM.

Consider `O=C1N[C@@](c2ccc(CCCCC(F)(F)F)cc2F)(C(F)(F)F)CC(c2ccn(C3CCC3)n2)=C1C(=O)NS(=O)(=O)C1CC1` [Example 50, (S)-4-(1-cyclobutyl-1H-pyrazol-3-yl)-N-(cyclopropylsulfonyl)-6-(2-fluoro-4-(5,5,5-trifluoropentyl)phenyl)-2-oxo-6-(trifluoromethyl)-1,2,5,6-tetrahydropyridine-3-carboxamide], for which the IC50 amounted to 16 nM.

As a reminder, the IC50 is the concentration needed to halve the response being measured.
